The values that follow come from patent publication US20140243401A1, “METHODS OF SCREENING COMPOUNDS THAT ARE CYTOTOXIC TO TUMOR CELLS AND METHODS OF TREATING TUMOR CELLS USING SUCH COMPOUND” (The Johns Hopkins University, priority 2010, published 2014).

One assay concerns mitochondrial FAS. Put plainly: 14C-malonate incorporation into mitochondrial fatty acids, mitochondria isolated from rat liver. The assay is classed as biochemical. The note with it: FIG. 3. Here is the method:
Mammalian mitochondrial FAS activity may be determined in a variety of ways. For example, [14C]malonate may be added to isolated mitochondria, fatty acids are extracted, and then radioactivity is tested. (See Zhang et al., J. Bio. Chem. 278(41): 40067-40074, 2003; Mikolajczyk, J. and Brody, S., Eur. J. Biochem. 187: 431-437, 1990). The mitochondria are purified using methods known in the art. (See Qiagen's Qproteome Mitochondria Isolation Kit; Methods in Enzymology, Vol. 10, Chapter 11, 1967). To test the inhibition of mmFAS activity, a test compound is added to the reaction mixture. Therefore, a test compound may be screened according the methods described herein as follows: (i) isolating mitochondria; (ii) incubating mitochondria with [14C]malonate with and without a test compound; and (iii) determining the quantity of lipids and/or fatty acids produced. By comparing the amount of product in the presence of the test compound to the amount in its absence, the degree of inhibition can be determined.
Mitochondria from MCF7 cells were prepared following manufacturer's protocol (Mitochondria Isolation Kit, Sigma, Saint Louis, Mo.). Rat liver mitochondria were isolated by homogenization with a tissue homogenizer in H-medium (220 mM mannitol, 70 mM sucrose, 2 mM HEPES, and 0.5 g/L of fatty acid free bovine serum albumin, pH 7.4). The homogenate was centrifuged at 1100 g for 3 min and washed twice with H-medium. The supernatants were pooled and centrifuged at 6800 g for 15 min. The pellet was then rinsed again and centrifuged at 3000 g for 3 min. The mitochondria supernatants were saved. The sediments were resuspended in H-medium and centrifuged at 3000 g for 3 min. The mitochondria supernatants were combined and centrifuged at 20,000 g for 15 min. The resulting mitochondria pellet were rinsed and centrifuged again at 20,000 g for 20 min.
Isolated mitochondria (100-200 μg) were mixed with 50 mM TES-KOH (pH 7.2), 10 mM MgCl2, 0.3 M sorbitol, 0.1% BSA, 1 mM each of ATP, ADP, NADH, NADPH, CoA, DTT and 1 μCi of [2-^14C]malonic acid (50 mCi/mmol) in a total volume of 200 μl. The reaction was performed for 30 min at room temperature. C31, Riv7d or vehicle were added at the beginning of this reaction. At the end of 30 minutes, the mitochondria pellet was separated from supernatant by centrifugation at 14000 rpm for 5 min. After washing with 500 μl of 50 mM TES-KOH (pH 7.2) and 0.3 M sorbitol, the mitochondria were incubated in 200 μl of H2O and 20 μl of 10 M KOH for 15 min at 65° C. Then the samples were added with 40 μl of 5 M H2SO4 and 20 μl of 1 mM palmitic acid (in 1 M acetic acid in isopropanol). The ^14C labeled fatty acids were twice extracted with hexane and sent to scintillation counting after drying.

Another assay relates to MCF7 cells. Put plainly: 14C-acetate incorporation into lipids in MCF7 cells. The assay is classed as cell-based, human. As to conditions: Homo sapiens; MCF7 cells, second experiment. Here is the method:
MCF7 human breast cancer cells (a cell line which overexpresses FAS) were cultured in DMEM containing 5 mM glucose medium with 10% fetal calf serum, 0.01 mg/ml insulin and 1% penicillin/streptomycin. For measurement of fatty acid synthesis cells were cultured in 24-well plates at 5×10^4 per well and incubated overnight. Fatty acid synthesis was assayed by a 2 h pulse of [U^14C]acetate, 1 μCi/well, followed by Folch extraction and scintillation counting. Test compounds were added with the addition of drugs as described. Controls were treated with DMSO alone.
MCF7 human breast cancer cells were cultured in DMEM containing 1 mM or 5 mM glucose in the medium with 10% fetal calf serum, 0.01 mg/ml insulin and 1% penicillin/streptomycin. The cells were grown in two oxygen conditions, normoxia (21% 02) or hypoxia (1% 02). For measurement of fatty acid synthesis cells were cultured in 24-well plates at 5×10^4 per well and incubated overnight. Fatty acid synthesis was assayed by a 2 h pulse of [U^14C]acetate, 1 μCi/well, followed by Folch extraction and scintillation counting with the addition of drugs as described. Controls were treated with DMSO alone.

In assay [1] the test system is SKOV3 human ovarian cancer cells. Put plainly: JC-1 staining, mitochondrial membrane potential in SKOV3 cells. The assay is classed as cell-based. As to conditions: SKOV3, drug in DMSO applied 30 min prior to staining. The text has this: JC-1 staining is an indicator of mitochondrial membrane potential; with this assay, mitochondria within cells stained with this fluorescent dye emit a wavelength in the red spectrum when mitochondrial membrane potential is intact. When mitochondria are depolarized, the wavelength of the spectrum emitted changes to green. Therefore, the ratio of red/green fluorescence will give an indication of the intactness of the membrane potential of mitochondria, and thus mitochondrial function.
The left panels show granular red-staining indicating mitochondria with intact membrane potential is brightest in control, and decreases with increasing concentrations of C31. Conversely, the right panels show the diffuse cytoplasmic green-staining which indicates mitochondrial depolarization, is dimmest in control and brightest at the highest concentration of C31 tested. Drug was solubilized in DMSO and applied for 30 min prior to staining.

In assay [2] the test system is MCF7 human breast cancer cells. Put plainly: XTT cytotoxicity assay, MCF7. The assay is classed as cell-based. The note with it: Homo sapiens, MCF7, XTT, MCF-7; for CC50: read-out: LC50 (the source's name). As to the method:
(§1) Cytotoxicity can be easily measured using XTT assays, which provide an indication of mitochondrial activity. The XTT assay is a non-radioactive alternative for the [^51Cr] release cytotoxicity assay. XTT is a tetrazolium salt that is reduced to a formazan dye only by metabolically active, viable cells. The reduction of XTT is measured spectrophotometrically as OD490-OD650. Thus, cells that are actively metabolizing will form reaction product when subjected to XTT measurement.
(§2) For this experiment, cells were cultured under standard culture conditions. MCF7 human breast cancer cells were cultured in DMEM containing 5 mM glucose medium with 10% fetal calf serum, 0.01 mg/ml insulin and 1% penicillin/streptomycin. To measure the cytotoxicity of specific compounds against cancer cells, 9×10^3 MCF7 cells were plated per well in 96-well plates. Following overnight culture, the compounds, dissolved in DMSO, were added to the wells in 1 μl volume at specified concentrations. Vehicle controls were run for each experiment. Each condition was run in triplicate. After 24 to 72 h of incubation, cells were incubated for 4 hours with the XTT reagent as per manufacturer's instructions (Cell Proliferation Kit II (XTT) Roche Diagnostics, New Jersey). Plates were read at OD490 on a PerkinElmer Victor 1420. Three wells containing the XTT reagent without cells served as the plate blank. XTT data were reported as OD490.
MCF7 human breast cancer cells were cultured in DMEM containing 1 mM or 5 mM glucose in the medium with 10% fetal calf serum, 0.01 mg/ml insulin and 1% penicillin/streptomycin. The cells were grown in two oxygen conditions, normoxia (21% 02) or hypoxia (1% 02). To measure the cytotoxicity of specific compounds against cancer cells, 9×10^3 MCF7 cells were plated per well in 96-well plates. Following overnight culture, the compounds, dissolved in DMSO, were added to the wells in 1 μl volume at specified concentrations. After 24 to 72 h of incubation, cells were incubated for 4 h with the XTT reagent as per manufacturer's instructions (Cell Proliferation Kit II (XTT) Roche Diagnostics, New Jersey). Plates were read at OD490 on a PerkinElmer Victor 1420. Three wells containing the XTT reagent without cells served as the plate blank. XTT data were reported as OD490Vehicle controls were run for each experiment. Each condition was run in triplicate.
(Tetrazolium dyes change colour on reduction, which living cells bring about.)

The test system of assay [3] is Human ovarian cancer (OVCAR). Put plainly: XTT cytotoxicity assay, OVCAR. In kind it is cell-based. As to conditions: for CC50: read-out: LC50 (the source's name). As to the method: (See, e.g., Rothman, S., J Clin. Pathol. 39: 672-676, 1986). For example, to measure the cytotoxicity of a test compound against cancer cells, cells (e.g., SKOV-3 cells or OVCAR-3) are plated in 96-well plates. Following overnight culture, the compound is added to the cells at specified concentrations. After 72 hours of incubation, cells are incubated for 4 hours with the XTT reagent as per manufacturer's instructions (Cell Proliferation Kit II (XTT) Roche Diagnostics, New Jersey), and the amount of color produced by viable cells is measured spectrophotometrically. […] is calculated by linear regression, plotting the color produced in treated cells as percent of control (untreated) cells versus drug concentrations.
as §1, §2

Assay [4] deals with Human colon cancer (HCT116). Put plainly: XTT cytotoxicity assay, HCT116. In kind it is cell-based. The note with it: for IC50: HCT-116; for CC50: HCT-116, read-out: LC50 (the source's name).
In assay [5] the test system is HCT116 human colon cancer xenograft. Put plainly: tumor xenograft size, HCT116. In kind it is in vivo, Athymic Nude mice. As to conditions: Study 101707, HCT-116, oral b.i.d. 16 days. Here is the method: Xenograft studies were performed using various mmFAS inhibitors disclosed herein. Human cancer xenograft studies are known in the art. (See Pizer et al., Cancer Res. 56:1189-1193, 1996; Pizer et al., Cancer Res. 60: 213-218, 2000; Testa et al., Oncogene 24: 7455-7464, 2005).
In particular, C31 mouse efficacy studies were conducted in order to evaluate anti-neoplastic activity of C31 in vivo. Athymic Nude mice were implanted with HCT116 human colon, SKOV3 human ovarian or OVCAR3 human ovarian cancer cell lines and were treated when the grown tumor xenografts reached at least 150 to 200 mm^3.^1 ^1 Compounds were solubilized in TEP (80% polyethylene glycol (PEG) 400, 10% ethanol, 10% tween-80) in a volume of 50 μL.

≈ marks a conversion by molar mass, not a printed value. A value given as a limit tells only on which side of the number the result lay.

As to `Oc1cc(Cl)ccc1Oc1ccc(Cl)cc1Cl` [Triclosan, triclosan, reference compound], the “IC50, inhibition of mitochondrial FAS (14C-malonate incorporation)” value with mitochondrial FAS (isolated mitochondria) came out at 3 μg per mL. Also, in the assay on mitochondrial FAS (mitochondria isolated from rat liver), the “effect on 14C-malonate incorporation into mitochondrial fatty acids” value was “inhibitory effect”.

The term IC50 denotes the point on the concentration scale where inhibition reaches its midpoint. Read a high IC50 as weaker potency in that assay. Turning to `CCCCCCCCC1(C)SC(=O)C=C1OCC(=O)Nc1ccc(OC(F)(F)F)cc1` (centres unmarked) [Compound C145], the IC50 in the assay with MCF7 cells was determined as 17.8 µM; in assay [2], 1.8 µg/mL (≈ 3.92 µM); in assay [3] it was 3.3 µg/mL (≈ 7.18 µM); in assay [4], 3.5 µg/mL (≈ 7.62 µM). In addition, in assay [1], the “mitochondrial depolarization (JC-1 staining)” value is reported as “depolarization of the mitochondria in the SKOV3 human ovarian cancer cells which is dose-dependent”. The CC50 in assay [2] was found to be 3.9 µM; in assay [3] it was 7.2 µM; in assay [4], 7.6 µM. The “Average Tumor Size Endpoint (% Change)” value in assay [5] (55 mg/kg) is “+236 % Change”.

Consider `CCCCCCCCC1(C)SC(=O)C=C1OCC(=O)Nc1ccc(C(F)(F)F)cc1` (centres unmarked) [Compound C144], for which the IC50 is above 5.6 µM in the assay on MCF7 cells, 2.2 µg/mL (≈ 4.96 µM) in assay [2], 4 µg/mL (≈ 9.02 µM) in assay [3] and 4.8 µg/mL (≈ 10.8 µM) in assay [4]. Further, in assay [1], the “mitochondrial depolarization (JC-1 staining)” value is on record as “depolarization of the mitochondria in the SKOV3 human ovarian cancer cells which is dose-dependent”. For the same molecule, the CC50 came out at 4.9 µM in assay [2], 9 µM in assay [3] and 10.8 µM in assay [4]. For the same molecule, in assay [5] (53 mg/kg), the “Average Tumor Size Endpoint (% Change)” value is listed as −91 % Change.
